Measurements as given in paper PMC6146087, “α-Glucosidase Inhibitors From the Coral-Associated Fungus Aspergillus terreus” (Frontiers in Chemistry, 2018).

Target: T1, α-glucosidase enzyme from Saccharomyces cerevisiae (Saccharomyces cerevisiae, UniProt P53341)
T1 construct: purchased Sigma Aldrich, USA
Assay: biochemical
Procedure: The α-glucosidase enzyme from Saccharomyces cerevisiae (Sigma Aldrich, USA) solution (1.5 U/mL) was prepared by dissolving the α-glucosidase in […] phosphate buffer (pH 6.8). The α-glucosidase enzyme solution (20 μL), test compounds (10 μL) and buffer (40 μL) were pipetted and mixed in a 96 well microtiter plate. The mixture was incubated at 37°C for 10 min. After incubation, p-nitrophenyl-α-D-glucopyranoside (PNP-G) substrate solution (10 μL, in 20 mM phosphate buffer) was added. The increment of absorbance due to the hydrolysis of PNP-G by α-glucosidase was measured at the wavelength of 410 nm with a microplate reader (Thermo Scientific, Waltham, MA). […] The α-glucosidase inhibitory activity was expressed as percentage inhibition and was calculated using the following formula: inhibition (%) = [1–(ODsample/ODblank)] × 100.

T1 sequence (P53341 whole entry): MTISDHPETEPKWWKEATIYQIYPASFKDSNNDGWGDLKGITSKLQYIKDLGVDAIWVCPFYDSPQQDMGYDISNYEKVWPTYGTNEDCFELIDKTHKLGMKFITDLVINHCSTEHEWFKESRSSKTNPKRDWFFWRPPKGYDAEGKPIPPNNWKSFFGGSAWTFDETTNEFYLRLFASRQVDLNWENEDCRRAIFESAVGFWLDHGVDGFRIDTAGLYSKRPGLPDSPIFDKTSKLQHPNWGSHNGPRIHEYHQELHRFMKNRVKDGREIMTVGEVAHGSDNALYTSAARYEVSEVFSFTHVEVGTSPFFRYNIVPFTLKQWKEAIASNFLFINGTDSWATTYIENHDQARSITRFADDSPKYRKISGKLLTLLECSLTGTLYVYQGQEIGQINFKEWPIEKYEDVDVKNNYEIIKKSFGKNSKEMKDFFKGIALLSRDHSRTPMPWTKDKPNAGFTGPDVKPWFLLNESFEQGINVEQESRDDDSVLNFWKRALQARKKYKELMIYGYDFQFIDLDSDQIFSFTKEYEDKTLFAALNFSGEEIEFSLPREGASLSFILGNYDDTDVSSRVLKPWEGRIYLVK

| SMILES | IC50 |
| --- | --- |
| COc1ccc(C2=C(Cc3ccc4c(c3)CC(C(C)(C)O)O4)[C@H](OC)OC2=O)cc1 (single isomer, unassigned; (+)) [3b, (+)-Asperteretone C] | 49.8 ± 5.7 µM |
| COc1ccc(C2=C(Cc3ccc4c(c3)CC(C(C)(C)O)O4)[C@@H](OC)OC2=O)cc1 (single isomer, unassigned; (-)) [3a, (−)-Asperteretone C] | 52.2 ± 4.6 µM |
| COC(=O)[C@@H](Cc1ccc(O)c(CC=C(C)C)c1)[C@H](C(=O)O)c1ccc(O)cc1 [1a, (−)-Asperteretone A] | 45.4 ± 3.8 µM |
| COC(=O)[C@H](Cc1ccc(O)c(CC=C(C)C)c1)[C@@H](C(=O)O)c1ccc(O)cc1 [1b, (+)-Asperteretone A] | 53.1 ± 1.4 µM |
| CO[C@@H]1OC(=O)C(c2ccc(O)cc2)=C1Cc1ccc(O)c(CC=C(C)C)c1 [2b, (+)-Asperteretone B] | 19.2 ± 1.9 µM |
| COC1OC(=O)C(c2ccc(O)cc2)=C1Cc1ccc(O)c(CCC(C)(C)O)c1 (stereo not drawn) [compound 5, Asperteretone E] | 48.9 ± 7.3 µM |

Further lines, results first:

| IC50 | SMILES |
| --- | --- |
| 17.3 ± 2.4 µM | CO[C@H]1OC(=O)C(c2ccc(O)cc2)=C1Cc1ccc(O)c(CC=C(C)C)c1 [2a, (−)-Asperteretone B] |
| 15.7 ± 1.1 µM | CO[C@H]1OC(=O)C(c2ccc(O)cc2)=C1Cc1ccc2c(c1)CCC(C)(C)O2 [4a, (−)-Asperteretone D] |
| 18.9 ± 2.3 µM | CO[C@@H]1OC(=O)C(c2ccc(O)cc2)=C1Cc1ccc2c(c1)CCC(C)(C)O2 [4b, (+)-Asperteretone D] |
